Measurements as given in patent US20050180972A1, “Anti-CD20 antibody-drug conjugates for the treatment of cancer and immune disorders” (priority 2002, published 2005).
Like-named read-outs stand apart in the source and are kept apart here. Square brackets hold non-standard residues; d marks the D form. Peptide text beside a SMILES is read from it. * marks the point of attachment. Dolaproine = CO[C@@H]([C@@H]1CCCN1)[C@@H](C)C(=O)O; Dil = CC[C@H](C)[C@H](NC)[C@@H](CC(=O)O)OC; X1 = C[C@@H](N*)[C@@H](O)c1ccccc1; NMeV = CN[C@H](C(=O)O)C(C)C

Tests used:
[1] = tested on: Daudi, Ramos, Raji and Karpas 299 cells; test: Relative potency of unconjugated drugs versus doxorubicin across cell lines; type: cell-based, human
Experimental: (§1) Cytotoxicity assays. Cytotoxicity was measured by Alamar Blue (Biosource International) dye reduction assay according to manufacturers directions (Nakayama et al. Journal Of Immunological Methods 1997; 204:205-208). Briefly, a 40% solution (w/v) of Alamar Blue was freshly prepared in complete media just prior to adding to cultures. The Alamar Blue solution was added at cell densities of 10^5 cells/ml for the Ramos, Raji, and Karpas cell lines, and at a cell density of 4×10^5 cells/ml for the Daudi cell line. After 92 h following drug exposure. Alamar Blue solution was added to cells to constitute 10% culture volume. The cells were incubated for 4 h and dye reduction measured on a Fusion HT fluorescent plate reader (Packard Instruments, Meriden, Conn.).
(§2) Cell sensitivity to unconjugated drugs. The cells were initially evaluated for relative sensitivity to doxorubicin and MMAE. Cells were exposed to drugs for 2 h, washed, replated in fresh media and incubated for an additional 92 h. Four h. prior to harvest, cells were incubated with Alamar Blue, a reducible dye that provides readout of cell viability (Nakayarna et al., 1997).

[2] = tested on: Daudi cells; test: Alamar Blue cytotoxicity assay, Daudi cells; type: cell-based, human
Experimental: as §1, §2
(§3) Sensitivity of cells to ADCs. […] As described above, 4 h prior to harvest, cells were incubated with Alamar Blue and cell viability assessed.

[3] = tested on: Ramos cells; test: Alamar Blue cytotoxicity assay, Ramos cells; type: cell-based, human
Experimental: as §1, §2, §3

[4] = tested on: Raji cells; test: Alamar Blue cytotoxicity assay, Raji cells; type: cell-based, human
Experimental: as §1, §2, §3

[5] = tested on: Karpas 299 cells; test: Alamar Blue cytotoxicity assay, CD20-negative Karpas 299 cells; type: cell-based, human
Experimental: as §1, §2, §3

[6] = tested on: Ramos cells; test: Confocal microscopy for mAb/ADC trafficking; conditions: 5 ug/ml, 37 C, 1, 4 and 24 h
From the text: Microscopy for mAb/ ADC trafficking. […] At the designated times cells were harvested by centrifugation, fixed and permeabilized by paraformaldehyde/saponin (Cytofix/Cytoperm™ Buffer, BD PharMingen, San Diego, Calif.). After washing with the Perm/Wash™ buffer (BD PharMingen) and blocking with goat IgG, cells were stained with a goat anti-human IgG Fc_specific FITC conjugate (Jackson ImmunoResearch Laboratories, Inc., West Grove, Pa.). The localization of fluorescence signals was then visualized using a Deltavision confocal fluorescence microscope equipped with digital analysis software.
Internalization of the mAb-drug conjugate.

[7] = tested on: CD20-positive cells; test: Cytotoxicity of ADCs, summary statement; type: cell-based, human; conditions: following brief exposure
Experimental: as §1, §3

[8] = tested on: Ramos NHL cells; test: Subcutaneous Ramos NHL xenograft model; type: in vivo, SCID mice; conditions: intraperitoneal, every 4 days for 3 injections, 3 mg/kg
Experimental: For the localized non Hodgkin's lymphoma model, 2×10^6 Ramos NHL cells were implanted into the right flank of SCID mice. […] Treatment consisted of intraperitoneal injections of mAb or ADC every 4 days for 3 injections. Tumor size was determined using the formula (L×W^2)/2.
SCID mice were implanted with 5×10^6 Ramos cells into the flank and the tumor size in each group of 5 animals was allowed to progress to an average size of 100 mm^3 before therapy with mAb or ADCs was initiated. Treatment consisted of intraperitoneal injections of mAb or ADC every 4 days for 3 injections using 1 and 3 mg/kg/injection.

[9] = tested on: Ramos cells; test: Induction of apoptosis, Annexin V-FITC / propidium iodide staining; conditions: 5 μg/ml, after 24 hr of incubation
Experimental: Selective induction of Apoptosis. […] At the designated times cells were removed from cultures and stained with Annexin V-FITC and propidium iodide (PI) as described in Materials and Methods. The range of apoptotic cells (Annexin V^+/PI^−) and of dead cells (Annexin V^+/PI^+) was determined by flow cytometric analysis of each population.
Induction of Apoptosis. […] At designated time points cells were removed from cultures and the degrees of apoptosis and cell death were determined by Annexin V binding to the cell surface and loss of propidium iodide (PI) inclusion respectively (FIG. 5).

[10] = ADC, 2 h binding, washed, additional 92 h, Daudi
[11] = ADC, 2 h binding, washed, additional 92 h, Raji
[12] = ADC, 2 h binding, washed, additional 92 h, Karpas

CC[C@H](C)[C@@H]([C@@H](CC(=O)N1CCC[C@H]1[C@H](OC)[C@@H](C)C(=O)N[C@H](C)[C@@H](O)c1ccccc1)OC)N(C)C(=O)[C@@H](NC(=O)[C@H](C(C)C)N(C)C)C(C)C [Auristatin E]
times more potent than doxorubicin [1]: > 50 times

COc1cccc2c1C(=O)c1c(O)c3c(c(O)c1C2=O)C[C@@](O)(C(=O)CO)C[C@@H]3O[C@H]1C[C@H](N)[C@H](O)[C@H](C)O1 [Doxorubicin, doxorubicin, reference compound]
IC50 ([2]; Homo sapiens, unconjugated drug, 2 h exposure, washed, additional 92 h, Daudi (CD20+), read-out: IC50): 140 nM
IC50 ([3]; Homo sapiens, unconjugated drug, 2 h exposure, washed, additional 92 h, Ramos (CD20+), read-out: IC50): 225 nM
IC50 ([4]; Homo sapiens, unconjugated drug, 2 h exposure, washed, additional 92 h, Raji (CD20+), read-out: IC50): 200 nM
IC50 ([5]; Homo sapiens, KARPAS-299, unconjugated drug, 2 h exposure, washed, additional 92 h, Karpas (CD20-), read-out: IC50): 650 nM

CC[C@H](C)[C@@H]([C@@H](CC(=O)N1CCC[C@H]1[C@H](OC)[C@@H](C)C(=O)N[C@H](C)[C@@H](O)c1ccccc1)OC)N(C)C(=O)[C@@H](NC(=O)[C@@H](NC)C(C)C)C(C)C [MMAE, monomethyl Auristatin E] (H-[NMeV]V[Dil][Dolaproine]-X1)
Activity Ratio MMAE/Doxorubicin ([2]; Daudi (CD20+)): 215.4
IC50 ([2]; Homo sapiens, Daudi): 0.65 nM
IC50 ([3]; Homo sapiens, Ramos): 1 nM
Activity Ratio MMAE/Doxorubicin ([3]; Ramos (CD20+)): 225.0
IC50 ([4]; Homo sapiens, Raji): 3.5 nM
Activity Ratio MMAE/Doxorubicin ([4]; Raji (CD20+)): 57.1
IC50 ([5]; Homo sapiens, KARPAS-299): 3 nM
Activity Ratio MMAE/Doxorubicin ([5]; Karpas (CD20-)): 216.7

Rituxan-vcDox [reference compound]
IC50 [2, 10]: >50 µg/mL
IC50 ([3]; ADC, 2 h binding, washed, additional 92 h, Ramos): >50 µg/mL
IC50 [4, 11]: >50 µg/mL
toxicity at the highest levels tested ([4]; Raji cells, up to 50 ug/ml): did not affect significant toxicity
IC50 [5, 12]: >50 µg/mL
cellular localization (equatorial section) [6]: remained primarily on the surface

Rituximab-valine-citrulline-monomethyl Auristatin E [Rituxan-vcMMAE]
IC50 [2, 10]: 2 µg/mL
IC50 ([3]; ADC on Ramos cells (FIG. 4B)): 0.045 µg/mL
IC50 ([4]; ADC on Raji cells (FIG. 4A)): 1.4 µg/mL
IC50 [4, 11]: 1.5 µg/mL
IC50 [5, 12]: >50 µg/mL
IC50 [7]: 0.05 µg/mL
delay in tumor growth [8]: significant delay in tumor growth
cellular localization (equatorial section) [6]: localized to the cell interior within 4 h
percentage of apoptotic cells [9]: 19%
percentage of dead cells [9]: 60%
